Experimental data published in ChEMBL document CHEMBL4184210, “Optimization of novel monobactams with activity against carbapenem-resistant Enterobacteriaceae - Identification of LYS228” (Bioorg Med Chem Lett, 2018).
Values after ≈ are worked out from the molar mass of the structure shown.

Experiments:
Escherichia coli [1] = experiment: microbe, parasite or virus in culture
Description: Antimicrobial activity against Escherichia coli expressing beta-lactamase P99 by CLSI broth microdilution method

Escherichia coli [2] = experiment: Antimicrobial activity against Escherichia coli expressing beta-lactamase NDM-5 by CLSI broth microdilution method; type: functional
Escherichia coli [3] = experiment: microbe, parasite or virus in culture; remark: listed apart in the source
Description: Antimicrobial activity against Escherichia coli expressing beta-lactamase PER-2 by CLSI broth microdilution method

Escherichia coli [4] = experiment: microbe, parasite or virus in culture; remark: listed apart in the source
Description: Antimicrobial activity against Escherichia coli expressing beta-lactamase Oxa-225 by CLSI broth microdilution method

Escherichia coli [5] = experiment: microbe, parasite or virus in culture; remark: listed apart in the source
Description: Antimicrobial activity against Escherichia coli expressing beta-lactamase TEM-16 by CLSI broth microdilution method

Escherichia coli [6] = experiment: microbe, parasite or virus in culture; remark: listed apart in the source
Description: Antimicrobial activity against Escherichia coli expressing beta-lactamase VEB-4 by CLSI broth microdilution method

Escherichia coli [7] = experiment: microbe, parasite or virus in culture; remark: listed apart in the source
Description: Antimicrobial activity against Escherichia coli expressing beta-lactamase Oxa-51 by CLSI broth microdilution method

Escherichia coli [8] = experiment: microbe, parasite or virus in culture; remark: listed apart in the source
Description: Antimicrobial activity against Escherichia coli expressing beta-lactamase Oxa-160 by CLSI broth microdilution method

Escherichia coli [9] = experiment: microbe, parasite or virus in culture; remark: listed apart in the source
Description: Antimicrobial activity against Escherichia coli expressing beta-lactamase CMY-2 by CLSI broth microdilution method

Escherichia coli [10] = experiment: microbe, parasite or virus in culture; remark: listed apart in the source
Description: Antimicrobial activity against Escherichia coli expressing beta-lactamase Oxa-10 by CLSI broth microdilution method

Escherichia coli [11] = experiment: microbe, parasite or virus in culture; remark: listed apart in the source
Description: Antimicrobial activity against Escherichia coli expressing beta-lactamase MIR-1 by CLSI broth microdilution method

Escherichia coli [12] = experiment: microbe, parasite or virus in culture; remark: listed apart in the source
Description: Antimicrobial activity against Escherichia coli expressing beta-lactamase Oxa-23 by CLSI broth microdilution method

Escherichia coli [13] = experiment: microbe, parasite or virus in culture; remark: listed apart in the source
Description: Antimicrobial activity against Escherichia coli expressing beta-lactamase KPC-3 by CLSI broth microdilution method

Escherichia coli [14] = experiment: microbe, parasite or virus in culture; remark: listed apart in the source
Description: Antimicrobial activity against Escherichia coli expressing beta-lactamase GIM-1 by CLSI broth microdilution method

Escherichia coli [15] = experiment: Antimicrobial activity against Escherichia coli expressing beta-lactamase NDM-1 by CLSI broth microdilution method; type: functional
Escherichia coli [16] = experiment: microbe, parasite or virus in culture; remark: listed apart in the source
Description: Antimicrobial activity against Escherichia coli expressing beta-lactamase SHV-12 by CLSI broth microdilution method

Escherichia coli [17] = experiment: microbe, parasite or virus in culture; remark: listed apart in the source
Description: Antimicrobial activity against Escherichia coli expressing beta-lactamase Oxa-146 by CLSI broth microdilution method

Escherichia coli [18] = experiment: microbe, parasite or virus in culture; remark: listed apart in the source
Description: Antimicrobial activity against Escherichia coli expressing beta-lactamase AmpC by CLSI broth microdilution method

Escherichia coli [19] = experiment: Antimicrobial activity against Escherichia coli expressing beta-lactamase VEB-1 by CLSI broth microdilution method; type: functional
Escherichia coli [20] = experiment: microbe, parasite or virus in culture; remark: listed apart in the source
Description: Antimicrobial activity against Escherichia coli expressing beta-lactamase GES-1 by CLSI broth microdilution method

Escherichia coli [21] = experiment: microbe, parasite or virus in culture; remark: listed apart in the source
Description: Antimicrobial activity against Escherichia coli expressing beta-lactamase TEM-24 by CLSI broth microdilution method

Escherichia coli [22] = experiment: microbe, parasite or virus in culture; remark: listed apart in the source
Description: Antimicrobial activity against Escherichia coli expressing beta-lactamase IMP-1 by CLSI broth microdilution method

Escherichia coli [23] = experiment: microbe, parasite or virus in culture; remark: listed apart in the source
Description: Antimicrobial activity against Escherichia coli expressing beta-lactamase VEB-7 by CLSI broth microdilution method

Escherichia coli [24] = experiment: microbe, parasite or virus in culture; remark: listed apart in the source
Description: Antimicrobial activity against Escherichia coli expressing beta-lactamase TEM-10 by CLSI broth microdilution method

Escherichia coli [25] = experiment: microbe, parasite or virus in culture; remark: listed apart in the source
Description: Antimicrobial activity against Escherichia coli expressing beta-lactamase PER-4 by CLSI broth microdilution method

Escherichia coli [26] = experiment: microbe, parasite or virus in culture; remark: listed apart in the source
Description: Antimicrobial activity against Escherichia coli expressing beta-lactamase PER-1 by CLSI broth microdilution method

[27] = biological target: GABA A receptor alpha-2/beta-2/gamma-2 (Homo sapiens) (UniProt P47870+P18507+P47869); experiment: Inhibition of recombinant human GABA A alpha2beta2gamma2 receptor expressed in CHO-K1 cells at 300 uM incubated at room temperature for 15 mins before the GABA addition fluorescence spectrometry; type: cell-based
Escherichia coli [28] = experiment: microbe, parasite or virus in culture; remark: listed apart in the source
Description: Antimicrobial activity against Escherichia coli expressing beta-lactamase KPC-4 by CLSI broth microdilution method

Escherichia coli [29] = experiment: microbe, parasite or virus in culture; remark: listed apart in the source
Description: Antimicrobial activity against Escherichia coli expressing beta-lactamase NMC-A by CLSI broth microdilution method

Escherichia coli [30] = experiment: microbe, parasite or virus in culture; remark: listed apart in the source
Description: Antimicrobial activity against Escherichia coli expressing beta-lactamase Oxa-181 by CLSI broth microdilution method

Escherichia coli [31] = experiment: microbe, parasite or virus in culture; remark: listed apart in the source
Description: Antimicrobial activity against Escherichia coli expressing beta-lactamase Oxa-40 by CLSI broth microdilution method

Escherichia coli [32] = experiment: microbe, parasite or virus in culture; remark: listed apart in the source
Description: Antimicrobial activity against Escherichia coli expressing beta-lactamase Oxa-18 by CLSI broth microdilution method

Escherichia coli [33] = experiment: microbe, parasite or virus in culture; remark: listed apart in the source
Description: Antimicrobial activity against Escherichia coli expressing beta-lactamase VIM-1 by CLSI broth microdilution method

Escherichia coli [34] = experiment: microbe, parasite or virus in culture; remark: listed apart in the source
Description: Antimicrobial activity against Escherichia coli expressing beta-lactamase TEM-121 by CLSI broth microdilution method

Escherichia coli [35] = experiment: Antimicrobial activity against Escherichia coli expressing beta-lactamase KPC-2 by CLSI broth microdilution method; type: functional
Escherichia coli [36] = experiment: microbe, parasite or virus in culture; remark: listed apart in the source
Description: Antimicrobial activity against Escherichia coli expressing beta-lactamase SPM-1 by CLSI broth microdilution method

Escherichia coli [37] = experiment: microbe, parasite or virus in culture; remark: listed apart in the source
Description: Antimicrobial activity against Escherichia coli expressing beta-lactamase IMI-1 by CLSI broth microdilution method

Escherichia coli [38] = experiment: microbe, parasite or virus in culture; remark: listed apart in the source
Description: Antimicrobial activity against Escherichia coli expressing beta-lactamase Oxa-48 by CLSI broth microdilution method

Escherichia coli [39] = experiment: microbe, parasite or virus in culture; remark: listed apart in the source
Description: Antimicrobial activity against Escherichia coli expressing beta-lactamase CTXM-3 by CLSI broth microdilution method

Escherichia coli [40] = experiment: microbe, parasite or virus in culture; remark: listed apart in the source
Description: Antimicrobial activity against Escherichia coli expressing beta-lactamase KPC-8 by CLSI broth microdilution method

Escherichia coli [41] = experiment: Antimicrobial activity against Escherichia coli expressing beta-lactamase TEM-1 by CLSI broth microdilution method; type: functional
Escherichia coli [42] = experiment: microbe, parasite or virus in culture; remark: listed apart in the source
Description: Antimicrobial activity against Escherichia coli expressing beta-lactamase TEM-47 by CLSI broth microdilution method

Pseudomonas aeruginosa [43] = experiment: Antimicrobial activity against Pseudomonas aeruginosa expressing delta-mexB/delta-mexXY/delta-mexCD and delta-ampC mutant by CLSI broth microdilution method; type: functional
Pseudomonas aeruginosa [44] = experiment: Antimicrobial activity against Pseudomonas aeruginosa expressing nalB/delta-mexXY/delta-mexCDoprJ/delta-ampC by CLSI broth microdilution method; type: functional
Escherichia coli [45] = experiment: microbe, parasite or virus in culture; remark: listed apart in the source
Description: Antimicrobial activity against Escherichia coli expressing beta-lactamase DHA by CLSI broth microdilution method

Pseudomonas aeruginosa [46] = experiment: Antimicrobial activity against Pseudomonas aeruginosa expressing delta-mexB/mexXY/delta-ampDh2/ delta-ampD by CLSI broth microdilution method; type: functional
Escherichia coli [47] = experiment: microbe, parasite or virus in culture; remark: listed apart in the source
Description: Antimicrobial activity against wild type Escherichia coli by CLSI broth microdilution method

Escherichia coli [48] = experiment: microbe, parasite or virus in culture; remark: listed apart in the source
Description: Antimicrobial activity against Escherichia coli expressing beta-lactamase SME-1 by CLSI broth microdilution method

Escherichia coli [49] = experiment: microbe, parasite or virus in culture; remark: listed apart in the source
Description: Antimicrobial activity against Escherichia coli expressing beta-lactamase CTXM-15 by CLSI broth microdilution method

Pseudomonas aeruginosa [50] = experiment: Antimicrobial activity against Pseudomonas aeruginosa ATCC 27853 by CLSI broth microdilution method; type: functional

In the case of `C[C@@H](O)[C@H]1C(=O)N2C(C(=O)O)=C(SCCNC=N)C[C@H]12` [IMIPENEM ANHYDROUS], the MIC (Escherichia coli [1]) was 0.25 µg/mL (≈ 0.835 µM), the MIC (Escherichia coli [2]) was 16 µg/mL (≈ 53.4 µM) and the MIC (Escherichia coli [3]) was 0.25 µg/mL (≈ 0.835 µM). The MIC (Escherichia coli [4]) was 1 µg/mL (≈ 3.34 µM), the MIC (Escherichia coli [5]) was 0.25 µg/mL (≈ 0.835 µM) and the MIC (Escherichia coli [6]) was 0.25 µg/mL (≈ 0.835 µM). The MIC (Escherichia coli [7]) was 0.25 µg/mL (≈ 0.835 µM), the MIC (Escherichia coli [8]) was 1 µg/mL (≈ 3.34 µM) and the MIC (Escherichia coli [9]) was 0.25 µg/mL (≈ 0.835 µM). For the same compound, the MIC (Escherichia coli [10]) was 0.25 µg/mL (≈ 0.835 µM), the MIC (Escherichia coli [11]) was 0.5 µg/mL (≈ 1.67 µM) and the MIC (Escherichia coli [12]) was 1 µg/mL (≈ 3.34 µM). For the same compound, the MIC (Escherichia coli [13]) was 2 µg/mL (≈ 6.68 µM), the MIC (Escherichia coli [14]) was 1 µg/mL (≈ 3.34 µM) and the MIC (Escherichia coli [15]) was 16 µg/mL (≈ 53.4 µM). The MIC (Escherichia coli [16]) was 0.25 µg/mL (≈ 0.835 µM), the MIC (Escherichia coli [17]) was 0.25 µg/mL (≈ 0.835 µM) and the MIC (Escherichia coli [18]) was 0.25 µg/mL (≈ 0.835 µM). The MIC (Escherichia coli [19]) was 0.125 µg/mL (≈ 0.418 µM), the MIC (Escherichia coli [20]) was 0.25 µg/mL (≈ 0.835 µM) and the MIC (Escherichia coli [21]) was 0.25 µg/mL (≈ 0.835 µM). It also gave an MIC (Escherichia coli [22]) of 2 µg/mL (≈ 6.68 µM), an MIC (Escherichia coli [23]) of 0.25 µg/mL (≈ 0.835 µM) and an MIC (Escherichia coli [24]) of 0.25 µg/mL (≈ 0.835 µM). It also gave an MIC (Escherichia coli [25]) of 0.25 µg/mL (≈ 0.835 µM), an MIC (Escherichia coli [26]) of 0.25 µg/mL (≈ 0.835 µM) and an inhibition [27] of 15%. The MIC (Escherichia coli [28]) was 1 µg/mL (≈ 3.34 µM), the MIC (Escherichia coli [29]) was 2 µg/mL (≈ 6.68 µM) and the MIC (Escherichia coli [30]) was 1 µg/mL (≈ 3.34 µM). It also gave an MIC (Escherichia coli [31]) of 1 µg/mL (≈ 3.34 µM), an MIC (Escherichia coli [32]) of 0.25 µg/mL (≈ 0.835 µM) and an MIC (Escherichia coli [33]) of 2 µg/mL (≈ 6.68 µM). For the same compound, the MIC (Escherichia coli [34]) was 0.25 µg/mL (≈ 0.835 µM), the MIC (Escherichia coli [35]) was 2 to 16 µg/mL (≈ 6.68 to 53.4 µM) and the MIC (Escherichia coli [36]) was 1 µg/mL (≈ 3.34 µM). It also gave an MIC (Escherichia coli [37]) of 2 µg/mL (≈ 6.68 µM), an MIC (Escherichia coli [38]) of 1 µg/mL (≈ 3.34 µM) and an MIC (Escherichia coli [39]) of 0.25 µg/mL (≈ 0.835 µM). For the same compound, the MIC (Escherichia coli [40]) was 2 µg/mL (≈ 6.68 µM).

In the case of `N=C(NC1CCNCC1)c1ccc(OC[C@H](O/N=C(\C(=O)N[C@@H]2C(=O)N(S(=O)(=O)O)[C@@H]2Cn2cncn2)c2csc(N)n2)C(=O)O)cc1` (stereo in doubt), the MIC (Escherichia coli [1]) was 0.5 µg/mL (≈ 0.708 µM), the MIC (Escherichia coli [41]) was 0.25 µg/mL (≈ 0.354 µM) and the MIC (Escherichia coli [2]) was 0.5 µg/mL (≈ 0.708 µM). For the same compound, the MIC (Escherichia coli [42]) was 0.125 µg/mL (≈ 0.177 µM), the MIC (Escherichia coli [3]) was > 64 µg/mL and the MIC (Escherichia coli [4]) was 0.25 µg/mL (≈ 0.354 µM). It also gave an MIC (Escherichia coli [5]) of 0.25 µg/mL (≈ 0.354 µM), an MIC (Escherichia coli [6]) of 64 µg/mL (≈ 90.7 µM) and an MIC (Escherichia coli [7]) of 0.125 µg/mL (≈ 0.177 µM). For the same compound, the MIC (Escherichia coli [8]) was 0.25 µg/mL (≈ 0.354 µM), the MIC (Escherichia coli [9]) was 0.5 µg/mL (≈ 0.708 µM) and the MIC (Pseudomonas aeruginosa [43]) was 1 µg/mL (≈ 1.42 µM). For the same compound, the MIC (Pseudomonas aeruginosa [44]) was 8 µg/mL (≈ 11.3 µM), the MIC (Escherichia coli [10]) was 0.125 µg/mL (≈ 0.177 µM) and the MIC (Escherichia coli [11]) was 0.25 µg/mL (≈ 0.354 µM). For the same compound, the MIC (Escherichia coli [12]) was 0.125 µg/mL (≈ 0.177 µM), the MIC (Escherichia coli [45]) was 1 µg/mL (≈ 1.42 µM) and the MIC (Escherichia coli [13]) was 0.25 µg/mL (≈ 0.354 µM). The MIC (Escherichia coli [14]) was 0.125 µg/mL (≈ 0.177 µM), the MIC (Escherichia coli [15]) was 0.125 µg/mL (≈ 0.177 µM) and the MIC (Escherichia coli [16]) was 0.5 µg/mL (≈ 0.708 µM). It also gave an MIC (Escherichia coli [17]) of 1 µg/mL (≈ 1.42 µM), an MIC (Escherichia coli [18]) of 0.25 µg/mL (≈ 0.354 µM) and an MIC (Escherichia coli [19]) of 64 µg/mL (≈ 90.7 µM). It also gave an MIC (Escherichia coli [20]) of 0.25 µg/mL (≈ 0.354 µM), an MIC (Escherichia coli [21]) of 0.5 µg/mL (≈ 0.708 µM) and an MIC (Pseudomonas aeruginosa [46]) of 16 µg/mL (≈ 22.7 µM). It also gave an MIC (Escherichia coli [22]) of 0.125 µg/mL (≈ 0.177 µM), an MIC (Escherichia coli [23]) of 64 µg/mL (≈ 90.7 µM) and an MIC (Escherichia coli [24]) of 1 µg/mL (≈ 1.42 µM). The MIC (Escherichia coli [25]) was > 64 µg/mL, the MIC (Escherichia coli [26]) was > 64 µg/mL and the inhibition [27] was 35%. The MIC (Escherichia coli [28]) was 1 µg/mL (≈ 1.42 µM), the MIC (Escherichia coli [47]) was 0.125 µg/mL (≈ 0.177 µM) and the MIC (Escherichia coli [29]) was 0.125 µg/mL (≈ 0.177 µM). For the same compound, the MIC (Escherichia coli [30]) was 0.25 µg/mL (≈ 0.354 µM), the MIC (Escherichia coli [31]) was 0.25 µg/mL (≈ 0.354 µM) and the MIC (Escherichia coli [32]) was 32 µg/mL (≈ 45.3 µM). For the same compound, the MIC (Escherichia coli [48]) was 0.125 µg/mL (≈ 0.177 µM), the MIC (Escherichia coli [33]) was 0.125 µg/mL (≈ 0.177 µM) and the MIC (Escherichia coli [34]) was 1 µg/mL (≈ 1.42 µM). For the same compound, the MIC (Escherichia coli [35]) was 0.125 µg/mL (≈ 0.177 µM), the MIC (Escherichia coli [36]) was 0.125 µg/mL (≈ 0.177 µM) and the MIC (Escherichia coli [49]) was 0.125 µg/mL (≈ 0.177 µM). For the same compound, the MIC (Escherichia coli [37]) was 0.125 µg/mL (≈ 0.177 µM), the MIC (Pseudomonas aeruginosa [50]) was 2 µg/mL (≈ 2.83 µM) and the MIC (Escherichia coli [38]) was 0.125 µg/mL (≈ 0.177 µM). It also gave an MIC (Escherichia coli [39]) of 0.125 µg/mL (≈ 0.177 µM) and an MIC (Escherichia coli [40]) of 0.5 µg/mL (≈ 0.708 µM).
